These results are taken from patent US7282521B2, “Anti-retroviral moronic acid derivatives” (priority 2004, dated 2007).

pEC50, pIC50: −log10 of the molar value. Like-named read-outs stand apart in the source and are kept apart here.

For data set [1], the system named is MT-4 cells. Nature of the data set: Cell growth inhibition (cytotoxicity) of uninfected cells. The note with it: table title: MT-4 cells; uninfected H9 cell growth; read-out: IC50 (concentration that inhibits uninfected cell growth by 50%). Type of data set: cell-based.
Data set [2] has as its system PI-R, HIV-1M46I/L63P/V82P/I84V, resistant to multiple protease inhibitors. Nature of the data set: microbe, parasite or virus in culture. The class given is cell-based. The text has this:
(§1) NL4-3 is a T-cell adapted HIV-1 strain, a wild type virus; PI—R is HIV-1M46I/L63P/V82P/I84V, an HIV-1 strain resistant to multiple protease inhibitors; and FHR-2 is an HIV-1 strain resistant to DSB (2).

Data set [3] has as its system NL4-3, a T-cell adapted HIV-1 strain, X4 wild type virus. In words: microbe, parasite or virus in culture. Type of data set: cell-based.
Excerpt: as §1

The subject of data set [4] is FHR-2, an HIV-1 strain resistant to DSB (2). Nature of the data set: microbe, parasite or virus in culture. Type of data set: cell-based.
Excerpt: as §1

Data set [5] concerns HIV fusion. Nature of the data set: Anti-HIV fusion activity (preliminary, data not shown). The class given is cell-based. The note with it: preliminary results.
Excerpt: as §1

The test system of data set [6] is HIV in H9 lymphocyte. The settings on record: cited from earlier work.
A short description of data set [7]: Cell growth inhibition (cytotoxicity) of uninfected cells. The class given is cell-based. The note with it: human, uninfected MT-4 cells; table title: MT-4 cells; uninfected H9 cell growth; read-out: IC50 (concentration that inhibits uninfected cell growth by 50%).
The mark [8] stands for this setting: MT-4 cells, multi-protease-inhibitor resistant HIV-1 strain, read-out: EC50, PI-R (concentration that inhibits viral replication by 50%).
Where [9] appears, read: MT-4 cells, NL4-3 wild type HIV-1 strain, read-out: EC50, NL4-3 (concentration that inhibits viral replication by 50%).
[10] abbreviates: MT-4 cells, DSB-resistant HIV-1 strain, — = no suppression at 5 μM, read-out: EC50, FHR-2 (concentration that inhibits viral replication by 50%).

For `CC(C)C[C@H](NC(=O)[C@]12CCC(C)(C)C=C1[C@H]1CC[C@@H]3[C@@]4(C)CC[C@H](OC(=O)CC(C)(C)C(=O)O)C(C)(C)[C@@H]4CC[C@@]3(C)[C@]1(C)CC2)C(=O)O` [Compound 8, N-[3β-(3′,3′-Dimethylsuccinoxy)olean-18-en-28-oyl]-L-leucine], in data set [1], the pIC50 is less than 4.84. The figures for the pEC50 in data set [2] (setting [8]), in data set [3] (setting [9]) and in data set [4] (setting [10]) were 7.68, 8.24 and 6.89, respectively. For the same compound, in data set [5], the anti-HIV fusion activity entry was “exhibit anti-HIV fusion activity”.
Consider `Cc1cn([C@H]2C[C@H](N=[N+]=[N-])[C@@H](CO)O2)c(=O)[nH]c1=O` [AZT, reference compound], for which the pIC50 in data set [1] is less than 4.43. Moreover, the pEC50 was 7.89 in data set [3] (setting [9]) and 6.72 in data set [4] (setting [10]).
Turning to `CC1(C)C=C2[C@H]3CC[C@@H]4[C@@]5(C)CCC(=O)C(C)(C)[C@@H]5CC[C@@]4(C)[C@]3(C)CC[C@@]2(C(=O)O)CC1` [moronic acid (3), moronic acid], the “EC50, anti-HIV activity” value in data set [6] is less than 0.1 µg/mL.
As for `C=C(C)[C@@H]1CC[C@]2(C(=O)O)CC[C@]3(C)[C@H](CC[C@@H]4[C@@]5(C)CC[C@H](OC(=O)CC(C)(C)C(=O)O)C(C)(C)[C@@H]5CC[C@]43C)[C@@H]12` [DSB (2), 3-O-(3′,3′-dimethylsuccinyl)-betulinic acid, reference compound], the pIC50 in data set [7] was less than 5.30. The pEC50 in data set [2] (Human immunodeficiency virus 1, MT4, read-out: EC50, PI-R (concentration that inhibits viral replication by 50%)) is 6.37; in data set [3] (Human immunodeficiency virus 1, NL43, MT4, read-out: EC50, NL4-3 (concentration that inhibits viral replication by 50%)) it was 7.02; in data set [4] (Human immunodeficiency virus 1, MT4, read-out: EC50, FHR-2 (concentration that inhibits viral replication by 50%)) it was less than 5.30.
With `CC(C)CC(CO)NC(=O)[C@]12CCC(C)(C)C=C1[C@H]1CC[C@@H]3[C@@]4(C)CC[C@H](OC(=O)CC(C)(C)C(=O)O)C(C)(C)[C@@H]4CC[C@@]3(C)[C@]1(C)CC2` (stereo partly drawn) [Compound 7, N-[3β-(3′,3′-Dimethylsuccinoxy)olean-18-en-28-oyl]-(1-hydroxy-methyl-3-methyl-butyl)-amide], the pIC50 in data set [1] is less than 4.84. In addition, the pEC50 was 7.06 in data set [2] (setting [8]), 7.35 in data set [3] (setting [9]) and 5.56 in data set [4] (setting [10]). Also, the anti-HIV fusion activity result in data set [5] was “exhibit anti-HIV fusion activity”.
